In paper PMC11714206, “Massively Parallel Screening of Toll/Interleukin‐1 Receptor (TIR)‐Derived Peptides Reveals Multiple Toll‐Like Receptors (TLRs)‐Targeting Immunomodulatory Peptides” (Advanced Science, 2024):
Several values for one entry are separate records, joined by “and”; a condition that tells them apart may be missing. Identical values can stand only once.

Biological target: T1, MyD88^TIR (Homo sapiens, UniProt Q99836)
T1 construct: MyD88 (residues 148–296); 6xHis; made in house; host or cells: E. coli BL21 (DE3)
Assay: T‐Surf phage library (P8 and P3) selection against MyD88^TIR, four rounds, NGS read counts
Type: binding
Settings: for P8_MyD88 Rank (after) / P8_MyD88 Rank (before): P8 library; for Population: P8_MyD88 pool: P8 T-Surf phage library, 4th round of selection against MyD88 TIR, share of NGS reads
Protocol: T‐Surf libraries were screened against the immobilized TIR domains of two major human TLR adaptor proteins, MAL^TIR and MyD88^TIR, allowing cross‐species selection of TIR‐binding motifs with 190 946 TIR‐derived peptides in a single binding assay (Scheme 1). Enriched phage pools from the fourth round of selection were analyzed using NGS after barcoding the peptide‐coding regions of the phage pools.
Phage display screening was performed by coating two wells of a 96‐well plate (Maxisorp, Thermo Fisher Scientific) with 100 µL of 5 µg mL^−1 TIR domains overnight; then, the coated wells were blocked with 200 µL of blocking buffer (0.2% BSA in PBS) and set aside for 1 h at 4 °C with gentle shaking. Next, 100 µL of the phage library was added to the wells and incubated for 1 h at room temperature (RT; 20 – 22 °C) with gentle shaking. The plate was washed four times with PBS containing 0.5% Tween‐20; the bound phages were eluted by adding 100 µL of 100 mM HCl to each well. The elute was neutralized with 10 µL of 1.0 M Tris‐HCl (pH 11.0). E. coli TG1 cells were grown to the log phase (A600 = ≈0.6), and 1 mL of the culture was incubated with 100 µL of the eluted phages for 30 min at 37 °C, with shaking at 200 rpm. Next, 1 µL of M13KO7 helper phages was added, followed by incubation for 45 min at 37 °C, with shaking. Subsequently, the cells were transferred to 25 mL of 2× yeast extract tryptone/carbenicillin/kanamycin medium and incubated overnight at 37 °C with shaking at 200 rpm. The amplified phages were precipitated with 20% PEG‐8000/2.5 M NaCl to be used for the next round of selection.
The naïve T‐Surf libraries in P8 and P3 and the enriched phage pools after four rounds were barcoded for NGS as previously described.^[ [59] ^] Briefly, 5 µL of the phage pool was used as a template for 20 cycles of a 50 µL PCR reaction using […] each of forward and reverse barcoded primers and PrimeSTAR Max DNA Polymerase. The PCR products were purified using Expin Gel SV (GeneAll). The NGS samples were quantified using qPCR, following the qPCR Quantification Protocol Guide (KAPA Library Quantification kits for Illumina Sequencing Platform), and qualified using the TapeStation High Sensitivity D1000 ScreenTape (Agilent Technologies). The indexed libraries were further sequenced by Macrogen (Seoul, Republic of Korea) using the NovaSeq platform (Illumina) with 100 bp paired‐end reads. The reads were demultiplexed by barcodes and filtered for an average Phred quality score of at least 30, followed by trimming the flanking consensus sequences using Cutadapt (version 2.3). Peptide sequence populations were analyzed according to the read counts.

[1] = selection against MyD88, rank after grouping
[2] = selection against MyD88, rank before grouping
[3] = P8_MyD88: rank by NGS read count after grouping
[4] = P8_MyD88: rank by NGS read count before grouping
[5] = selection against MyD88 TIR, rank by count after grouping
[6] = selection against MyD88 TIR, rank by count before grouping
[7] = P8_MyD88: rank by count after grouping
[8] = P8_MyD88: rank by count before grouping
[9] = 4R selection against MyD88, rank after grouping
[10] = 4R selection against MyD88, rank before grouping
[11] = selection against MyD88, rank by count after grouping
[12] = selection against MyD88, rank by count before grouping
[13] = P3_MyD88: rank by count after grouping
[14] = P3_MyD88: rank by count before grouping

T1 sequence (Q99836 148-296): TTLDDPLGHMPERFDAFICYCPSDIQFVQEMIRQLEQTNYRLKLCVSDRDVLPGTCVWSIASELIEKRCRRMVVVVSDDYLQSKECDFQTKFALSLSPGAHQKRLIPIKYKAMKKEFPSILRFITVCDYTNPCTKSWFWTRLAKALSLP

DPQDLQWFYERLVSLMASGI
P8_MyD88 Rank (after) [1]: 494 | P8_MyD88 Rank (before) [2]: 2920

DPQDLQWSYERLVSRI
Rank (after) [3]: 938 | Rank (before) [4]: 2939

DPQDLVWFYERLVSIV
Rank (after) [3]: 986 | Rank (before) [4]: 2713

DPQDLVWFYERLVSLF
Population: 0.00886%

DPQDLVWFYERPVSIF
Rank (after) [3]: 909 | Rank (before) [4]: 2712

DPQDLVWFYESLVSLF
P8_MyD88 Rank (after) [5]: 263 | P8_MyD88 Rank (before) [6]: 2714

DPQDLVWFYKRLFSQM
Rank (after) [3]: 977 | Rank (before) [4]: 2720

DPQDLVWYYERLVSLF
Rank (after) [7]: 410 | Rank (before) [8]: 2717

DPQDMEWFYERLVSLIL
P8_MyD88 Rank (after) [9]: 602 | P8_MyD88 Rank (before) [10]: 2975

DPQDPDRNYERMVSRL
P8_MyD88 Rank (after) [9]: 661 | P8_MyD88 Rank (before) [10]: 2961

DPQDPDWCYERLVSLI
P8_MyD88 Rank (after) [1]: 522 | P8_MyD88 Rank (before) [2]: 2962

DPQDQDRFYERLVSLF
P8_MyD88 Rank (after) [9]: 591 | P8_MyD88 Rank (before) [10]: 2968

DPQDQDWVYERLVSLF
Rank (after) [3]: 936 | Rank (before) [4]: 2966

DPQDQEWFYERLFSHV
Rank (after) [7]: 438 | Rank (before) [8]: 2970

DPQDQEWLYERLFSQM
P8_MyD88 Rank (after) [9]: 619 | P8_MyD88 Rank (before) [10]: 2971

DPQDRDWIYERLVSLF
Rank (after) [7]: 423 | Rank (before) [8]: 2956

DPQDREWCYERLVSLL
P8_MyD88 Rank (after) [1]: 516 | P8_MyD88 Rank (before) [2]: 2958

DPQDREWFYERLVSLF
P8_MyD88 Rank (after) [5]: 277 | P8_MyD88 Rank (before) [6]: 2957

DPQDTDWFYERLVSMF
P8_MyD88 Rank (after) [1]: 499 | P8_MyD88 Rank (before) [2]: 2976

DPQELDGFYERLVSLF
Rank (after) [7]: 401 | Rank (before) [8]: 3015

DPQELDWFYELLVSPF
P8_MyD88 Rank (after) [11]: 689 | P8_MyD88 Rank (before) [12]: 2982

DPQELDWFYERLVSLF
Population: 0.02% and 0.0158%

DPQELDWIYQRLVSLF
P8_MyD88 Rank (after) [11]: 714 | P8_MyD88 Rank (before) [12]: 2987

DPQELDWYYERLVSLF
P8_MyD88 Rank (after) [5]: 241 | P8_MyD88 Rank (before) [6]: 2986

DPQELECLYERLFSQM
P8_MyD88 Rank (after) [9]: 667 | P8_MyD88 Rank (before) [10]: 2991

DPQELEGVYERLVSLF
Rank (after) [7]: 405 | Rank (before) [8]: 2994

DPQELEWFYERLLSQM
P8_MyD88 Rank (after) [9]: 620 | P8_MyD88 Rank (before) [10]: 2993

DPQELEWFYERLVSLF
Rank (after) [7]: 163 | Rank (before) [8]: 745

DPQELGWFYERPFSQM
P8_MyD88 Rank (after) [1]: 554 | P8_MyD88 Rank (before) [2]: 2981

DPQELQWIYERLVSLF
P8_MyD88 Rank (after) [11]: 759 | P8_MyD88 Rank (before) [12]: 3018

DPQELVWRYERLVSLF
Rank (after) [3]: 962 | Rank (before) [4]: 3010

DPQEQLSFCERLITVF
P8_MyD88 Rank (after) [11]: 743 | P8_MyD88 Rank (before) [12]: 2995

DPQEQVGICVRLMEAL
P8_MyD88 Rank (after) [9]: 585 | P8_MyD88 Rank (before) [10]: 3020

DPQERGCQYQRLVGML
Rank (after) [3]: 902 | Rank (before) [4]: 3019

DPQGHAWTYERHLSVF
P8_MyD88 Rank (after) [9]: 584 | P8_MyD88 Rank (before) [10]: 2674

DPQGLAWFYERLVSLL
Rank (after) [7]: 443 | Rank (before) [8]: 2664

DPQGLDWFYERLFSQM
Rank (after) [7]: 396 | Rank (before) [8]: 2679

DPQGLDWYYVRLVSLL
Rank (after) [3]: 926 | Rank (before) [4]: 2666

DPQGLGWFYERLVSLF
P8_MyD88 Rank (after) [5]: 223 | P8_MyD88 Rank (before) [6]: 2678

DPQGLVCYYERLVSLL
P8_MyD88 Rank (after) [9]: 595 | P8_MyD88 Rank (before) [10]: 2662

DPQGLVWLYERLFSQI
Rank (after) [3]: 918 | Rank (before) [4]: 2663

DPQGRDWFYERLVSLF
Rank (after) [7]: 394 | Rank (before) [8]: 2672

DPQGVDLFYERQVSLL
P8_MyD88 Rank (after) [1]: 567 | P8_MyD88 Rank (before) [2]: 2675

DPQLLDWFYVRLVSLL
Rank (after) [3]: 1001 | Rank (before) [4]: 3022

DPQLLDWLYERLRRPV
Rank (after) [3]: 999 | Rank (before) [4]: 3024

DPQLLVCFYERLVSLF
P8_MyD88 Rank (after) [9]: 640 | P8_MyD88 Rank (before) [10]: 3023

DPQLLVCFYERVVRMF
Rank (after) [3]: 1010 | Rank (before) [4]: 3025

DPQNLQWFYERLVILI
Rank (after) [7]: 392 | Rank (before) [8]: 3031

DPQTLQSFYERLVSLI
P8_MyD88 Rank (after) [1]: 557 | P8_MyD88 Rank (before) [2]: 3027

DPQVLDWYYERLVRLF
P8_MyD88 Rank (after) [9]: 626 | P8_MyD88 Rank (before) [10]: 2646

DPQVLERKYERLVKLV
P8_MyD88 Rank (after) [11]: 718 | P8_MyD88 Rank (before) [12]: 2650

DPQVLEWFYELLVSLL
P8_MyD88 Rank (after) [11]: 684 | P8_MyD88 Rank (before) [12]: 2656

DPQVLEWFYERLVSMF
P8_MyD88 Rank (after) [9]: 658 | P8_MyD88 Rank (before) [10]: 2657

DPQVLEWIYARLFSQM
P8_MyD88 Rank (after) [9]: 649 | P8_MyD88 Rank (before) [10]: 2649

DPQVLEWLYKRLFSQM
P8_MyD88 Rank (after) [11]: 677 | P8_MyD88 Rank (before) [12]: 2648

DPQVLVWLYERPFRQI
P8_MyD88 Rank (after) [9]: 629 | P8_MyD88 Rank (before) [10]: 2644

DPQVPEWFYNRLFCQL
Rank (after) [3]: 959 | Rank (before) [4]: 2651

DPQVRDWFYERAVSLF
Rank (after) [7]: 452 | Rank (before) [8]: 2660

DPQVRVWFYERLVSLF
P8_MyD88 Rank (after) [11]: 755 | P8_MyD88 Rank (before) [12]: 2659

DPQYRDWFYERLVSLP
P8_MyD88 Rank (after) [1]: 512 | P8_MyD88 Rank (before) [2]: 2642

DPRDLAWFYEVLLSRF
P8_MyD88 Rank (after) [9]: 657 | P8_MyD88 Rank (before) [10]: 2618

DQHLDLPRGKAIKPELLG
Rank (after) [13]: 475 | Rank (before) [14]: 2066

DQHRDLPRGKAIKPEILG
Rank (after) [13]: 168 | Rank (before) [14]: 2067

DQQDLDWFYERLVSVF
P8_MyD88 Rank (after) [1]: 505 | P8_MyD88 Rank (before) [2]: 3051

DRQDLVWPYERLVSLL
P8_MyD88 Rank (after) [11]: 698 | P8_MyD88 Rank (before) [12]: 2599

DRSIWDRLLYSLHVTE
Rank (after) [3]: 996 | Rank (before) [4]: 3141

DRVWDYLLPNLEGQAG
P8_MyD88 Rank (after) [1]: 545 | P8_MyD88 Rank (before) [2]: 3073
